“Also recorded” adds a separate entry of the source. Oligonucleotides are written 5' to 3', each unit as a sugar letter and its base; * is a phosphorothioate linkage, no mark a phosphodiester; rarer units and linkages stand in square brackets, end groups in braces. Plain capitals give the bases only. d = 2'-deoxy (DNA)
How the values were obtained:
Assay type in all cases: cell-based, human
[1] = tested on: MDA-MB-231 cells; assay: Matrigel invasion assay, MDA-MB-231 cells
Method: (§1) In vitro invasion assays. For the Matrigel-invasion assay the cells were plated at the density of 5×10^4 (MDA-MB-231, U373, D54MG), 15×10^4 (T47-D) or 30×10^4 (MCF-7) cells per upper well in 750 μl of normal culture medium (Virtanen et al., Cancer Res. 62:2708-14 (2002)), indicated concentrations of the various CpG-ODNs, non-CpG-ODNs or vehicle were added to both the upper and lower wells. When indicated, aprotinin (2 μM), GM6001 (2 μM), MMP-8 inhibitor 1 (8 nM) or the same volume of the corresponding control compound, control IgG or neutralizing anti-MMP-13 antibody (R& D Systems, Minneapolis, Minn., both at 12 μg/ml) or chloroquine (10 μM) were also added to both upper and lower wells. The cells were allowed to invade for 18 h, after which the inserts were removed and stained with the Hema 3 Stain set (Fisher Diagnostics, Middletown, Pa.), according to the manufacturer's recommendation. The number of invaded cells was counted from 5 pre-selected microscopic fields using a 40× objective. To assess invasion in a three-dimensional type I collagen gel, acid solubilized type I collagen (0.9 ml) was added to the Costar Transwell dishes (Corning, Inc., Corning, N.Y.) and gelled over 45 min at 37° C. The collagen was prepared using rat-tail type 1 collagen dissolved in 0.2% acetic acid at 3.2 mg/ml and gelled by neutralizing the acid with 0.3 N NaOH containing phenol red as a pH indicator. A final concentration of 3.0 mg/ml was obtained. Media, containing vehicle or 10 μM type C CpG-ODN was men added to the upper and lower chambers prior to the addition of 5×10^5 cells to the surface of the collagen gel in the presence of serum-containing medium. […] Tumor cell invasion (depth and number of cells below the surface) was assessed by light microscopy in a minimum of four randomly selected sections for each experimental sample. The number of invading cells per high power field (400×) were counted and averaged. The depth of invasion was also measured in four randomly selected areas for each sample using photomicrograph of each sample.

[2] = tested on: MMP-activity in MDA-MB-231 cells; assay: gelatin zymogram of MDA-MB-231 supernatants; details: 2 μM added to final incubation of gels
Method: Zymograms. The zymograms were performed as previously described (Suarex-Cuervo et al., Clin. Exp. Metastasis 21:525-33 (2004)). In this assay, the gelatinolytic bands represent the following MMPs: 120 kDa band represents MMP-9 and neutrophil gelatinase associated lipocalin complex, 90 kDa band represents pro-MMP-9 and the 72 kDa band represents proMMP-2. Briefly, MDA-MB-231 cells were plated on 12-well plates and allowed to reach confluency. The cells were then rinsed with PBS and serum-free medium, with the indicated concentrations of type C CpG-ODNs, type C non-CpG-ODNs or vehicle was applied for 24 h.

[3] = tested on: PC-3 cells; assay: Matrigel invasion assay, PC-3 cells
Method: In vitro invasion assays. For the Matrigel-invasion assay the cells were plated at the density of 5×10^4 (PC-3, Du-145, LnCaP and MDA PCa 2b) cells per upper well in 500 μl of normal culture medium, Indicated concentrations of the various CpG-ODNs, bacterial DNA (E. Coli, Sigma, St. Louis, Mo.) or vehicle were added to both the upper and lower wells. When indicated, p38- or JNK-inhibitor (both at final concentration of 10^−5 M), control IgG or neutralizing anti-MMP-13 antibody (R&. D Systems, Minneapolis, Minn., both at 12 μg/ml) or chloroquine (10 μM) were also added to both upper and lower wells. […] The number of invaded cells were counted from 5 pre-selected microscopic fields using a 40× objective.

[4] = tested on: NFκB reporter gene; assay: NFκB reporter gene assay in transfected MDA-MB-231 pools
Method: MDA-MB-231 cells were stably transfected with pIRES-EGFP empty vector (EV) or with pIRES-EGFP-TRAF6DN-Flag. Stable pools were Flow-sorted for the expression of EGFP for 3 cycles. […] The same blots were stripped and re-blotted with antibodies against Flag, GFP and actin. For FIG. 12B, the various cells were transiently transfected with a NFκB reporter gene and treated with CpG-ODN or TNF-α. Reporter gene activation was calculated as fold-increase vs. vehicle-treatment. Mean±SD, n=6. * p<0.05, *** p<0.001 pIRES-EV vs. pIRES-EGFP-TRAF6DN. For FIG. 12C, the pIRES-EGFP and pIRES-EGFP-TRAF6DN cells were plated on Matrigel-assays and treated with vehicle or with 2 or 10 μM Non-CpG-ODN or CpG-ODN, The number of invaded cells were counted microscopically 22 h later. Data are expressed as fold-increase in treatment-induced invasion, mean±sd, n±3-6. * p<0.05, ** p<0.01 pIRES-EGFP vs. pIRES-EGFP-TRAF6DN.
Stable transfection of TRAF6 into MDA-MB-231 breast cancer cells. The cDNA encoding for dominant negative TRAF6 has been described previously (Yeo et al., (2003) J. Biol. Chem. 278:22563-22573). The pIRES-EGF-DNTRAF6-Flag and pIRES-EGF were stably transfected into the MDA-MB-231 cells. The established stable pools were submitted to three cycles of Flow-sorting for highest emission of GFP, to enrich the populations of transfected cells. […]

[5] = tested on: MDA-MB-231, T47-D or MCF-7 cells; assay: MTS cell viability assay, breast cancer cells
Method: Cell viability assays. MDA-MB-231, T47-D or MCF-7 cells were plated at the density of 1000 cells/well in 96-well plates in normal culture medium, and cultured for the indicated periods of time with 10 μM type C CpG-ODN or vehicle. Cell viability was assessed after MTS was added for the final 2 hours of the experimental cultures as recommended by the manufacturer (CellTiter 96 AQueous Non-Radioactive Cell Proliferation Assay, Promega, Madison, Wis.).

[6] = tested on: MCF-7 breast cancer cells; assay: Matrigel invasion assay, MCF-7 cells; details: 1 and 10 μM
Method: as §1, with “objective.” for “objective. To assess invasion in a three-dimensional type I collagen gel, acid solubilized type I collagen (0.9 ml) was added to the Costar Transwell dishes (Corning, Inc., Corning, N.Y.) and gelled over 45 min at 37° C. The collagen was prepared using rat-tail type 1 collagen dissolved in 0.2% acetic acid at 3.2 mg/ml and gelled by neutralizing the acid with 0.3 N NaOH containing phenol red as a pH indicator. A final concentration of 3.0 mg/ml was obtained. Media, containing vehicle or 10 μM type C CpG-ODN was men added to the upper and lower chambers prior to the addition of 5×10^5 cells to the surface of the collagen gel in the presence of serum-containing medium.”

[7] = tested on: MCF-10A mammary epithelial cells; assay: Matrigel invasion assay, MCF-10A cells; details: 1 and 10 μM

CNC(=O)[C@H](Cc1c[nH]c2ccccc12)NC(=O)[C@@H](CC(=O)NO)CC(C)C [GM6001]
effect on type C CpG-induced invasion of MDA-MB-231 cells ([1]; inhibitor 2 μM, type C CpG-ODN 10 μM): inhibited CpG-ODN-induced invasion; also recorded: inhibited by the MMP inhibitor
effect on CpG-ODN-induced gelatinolytic band of about 50 kDa [2]: abolished; also recorded: did disappear

CCN(CC)CCCC(C)Nc1ccnc2cc(Cl)ccc12 (stereo not drawn) [chloroquine]
effect on non-CpG-ODN-induced invasion ([1]; chloroquine 10 μM, non-CpG-ODN 10 μM, 18 h): inhibited
effect on CpG-ODN-induced invasion ([1]; chloroquine 10 μM, type C CpG-ODN 10 μM, 18 h): blocked; also recorded: inhibited
effect of chloroquine on E. coli DNA-induced invasion of PC-3 cells ([3]; chloroquine 10 μM, 1000 ng/ml E. coli DNA, 20 h): inhibited
effect of chloroquine on CpG-ODN-induced invasion of PC-3 cells ([3]; chloroquine 10 μM, CpG-ODN 5 μM, 18 h): significantly inhibited; also recorded: inhibits CpG-ODN-induced invasion

C[S+]([O-])c1ccc(-c2nc(-c3ccncc3)c(-c3ccc(F)cc3)[nH]2)cc1 (stereo not drawn) [p38 inhibitor, SB203580]
effect of MAP-kinase inhibitors on CpG-ODN-induced invasion of PC-3 cells ([3]; inhibitor 10^−5 M, CpG-ODN 5 μM, 18 h): Neither of these inhibitors affected CpG-ODN-induced invasion

TNF-α
NFκβ-promoter activity in empty vector cells ([4]; pIRES-EGFP empty vector MDA-MB-231): significant increase in NFκβ-promoter activity
NFκβ-promoter activity in TRAF6DN-pool ([4]; pIRES-EGFP-TRAF6DN MDA-MB-231): blunted

aprotinin
effect on CpG-ODN-induced gelatinolytic band of about 50 kDa [2]: did not disappear; also recorded: not inhibited

type C non-CpG-ODN: 5′-tgc tgc tgc tig caa gca get tga t-3′ (SEQ ID NO:6), non-CpG-ODN control (DNA dT*dG*dC*dT*dG*dC*dT*dG*dC*dT*dT*dG*dC*dA*dA*dG*dC*dA*dG*dC*dT*dT*dG*dA*dT)
cell viability (MTS), longer incubation [5]: significantly decreased viability
invasion of TLR9 negative MCF-7 cells [6]: did not, however, stimulate invasion
invasion of TLR9 negative MCF-7 cells ([6]; listed as non-CpG-ODN): no significant effect
invasion of MCF-10A cells [7]: stimulated invasion
invasion of MCF-10A cells ([7]; listed as non-CpG-ODN): induced a significant invasion response

— US20090191185A1, “Reducing Cancer Cell Invasion Using an Inhibitor of Toll Like Receptor Signaling” (THE UAB RESEARCH FOUNDATION, priority 2006, published 2009)
